From patent US20050288347A1, “Certain triazole-based compounds, compositions, and uses thereof” (priority 2004, published 2005) come the findings set out here.

The structures appear in SMILES notation. “Also recorded” adds a separate entry of the source.

The target of one test is protein kinase. As to the kind of experiment: HTS ATP-utilizing enzyme assay, off-chip mobility-shift format (Caliper HTS 250). The test is classed as biochemical, human. Particulars: kinase(s) for which the compound exhibits protein kinase inhibitory activity; test compound 10 μM; active = greater than three-sigma from the mean activity of inactive compounds. In short, it runs like this:
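Kinase reactions ran 2.5 h at 20 to 22 °C with test compound at 10 μM, in a HEPES pH 7.5 master buffer containing Triton X-100 and BSA. Peptide substrate and phosphorylated product separated by mobility shift; inhibition normalized to DMSO (0%) and EDTA (100%) controls, with three-sigma thresholds for hits.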
As to `COc1ccc(-c2nnc(SCC(=O)Nc3ccccc3O)n2-c2ccccc2)cc1OC`, the Kinase result is “AURORA-A”.

On to `COc1ccc(-n2c(CNc3cc(C(F)(F)F)ccc3Cl)nnc2SCC#N)cc1`, for which the Kinase result is recorded as “CDK1”.

For `Cn1c(Cc2ccccc2)nnc1SCC(N)=O` [2-(5-benzyl-4-methyl-4H-1,2,4-triazol-3-ylthio)acetamide], the Kinase result is “HCK”.

Turning to `COc1ccc(NCc2nnc(SCC(=O)Nc3ccccc3C(F)(F)F)n2-c2ccccc2)cc1`, the Kinase entry is reported as “PDGFRR-α”.

Consider `O=C(O)CSc1nnc(-c2ccc([N+](=O)[O-])cc2)n1CC1CCCO1` (stereo not drawn), for which the Kinase result is reported as “PDGFRR-α”.

Turning to `Cc1ccc(NC(=O)CSc2nnc(CNc3ccc(F)cc3)n2CC2CCCO2)cc1` (stereo not drawn), the Kinase entry is listed as “AURORA-A”.

Turning to `N#CCSc1nnc(-c2ccccc2)[nH]1` [2-(5-phenyl-4H-1,2,4-triazol-3-ylthio)acetonitrile], the Kinase result is listed as “DYRK2; also recorded: FLT-3; also recorded: AURORA-A”.

Regarding `Cn1c(SCC(=O)N(CC(=O)NC2CCCCC2)C2CCCC2)nnc1-c1ccc(C(C)(C)C)cc1`, the Kinase entry was “DAPK1”.

In the case of `C=CCn1c(S)nnc1-c1cc2ccccc2cc1O` [3-(4-allyl-5-mercapto-4H-1,2,4-triazol-3-yl)naphthalen-2-ol], the Kinase result is listed as “MSK1”.

For the compound `O=C(CSc1nnc(-c2ccc(O)cc2)n1Cc1ccco1)NCc1ccc2c(c1)OCO2`, the Kinase entry is “CDK2-cyclinA and CDK5 and CDK2-cyclinE”.

With `CCOc1ccc(NCc2nnc(S)n2-c2cccc(Cl)c2)cc1`, the Kinase entry is “PDGFRR-α; also recorded: FLT-3”.

For the compound `CCOc1ccc2nc(NC(=O)CSc3nnc(-c4ccncc4)n3CCCOC)sc2c1`, the Kinase entry is listed as “GSK3-β; also recorded: PDGFRR-α; also recorded: GSK3-α”.

With `CCn1c(S)nnc1CNc1cccc(Cl)c1` [5-((3-chlorophenylamino)methyl)-4-ethyl-4H-1,2,4-triazole-3-thiol], the Kinase entry is “GSK3-β; also recorded: GSK3-α”.

On to `Cc1cccc(OCc2nnc(S)n2C2CCCCC2)c1` [4-cyclohexyl-5-(m-tolyloxymethyl)-4H-1,2,4-triazole-3-thiol], for which the Kinase entry was “GSK3-α; also recorded: CHEK1; also recorded: AURORA-A”.

`Sc1nnc(COc2ccc3ccccc3c2)n1-c1ccccc1` [5-((naphthalen-2-yloxy)methyl)-4-phenyl-4H-1,2,4-triazole-3-thiol]: the Kinase result is “AURORA-A”.

With `Cn1c(Cn2cnc3ccccc32)nnc1SCC(=O)Nc1ccccc1Cl`, the Kinase result is given as “FYN”.

`Cc1ccc(-n2c(C)nnc2SCc2nnc(S)n2-c2ccccc2)cc1`: the Kinase entry is recorded as “PDGFRR-α”.

Take `CCn1c(SCC(=O)Nc2nccs2)nnc1-c1ccccc1` [2-(4-ethyl-5-phenyl-4H-1,2,4-triazol-3-ylthio)-N-(thiazol-2-yl)acetamide]: the Kinase result is reported as “GSK3-β; also recorded: GSK3-α; also recorded: CHEK2”.

Regarding `O=C(CSc1nnc(COc2cccc3cccnc23)n1-c1ccccc1)Nc1ccccc1`, the Kinase entry is “SGK1 and CDK1”.

For the compound `COc1ccc(NCc2nnc(SCC(=O)Nc3ccccc3C)n2C)cc1`, the Kinase result was “INSR and CHEK1 and FYN”.

Regarding `CCc1nnc(NC(=O)CSc2nnc(-c3cccc(C)c3)n2CC)s1`, the Kinase result was “LCK”.

For `Cn1c(SCC(=O)Nc2nc3c(s2)CCCC3)nnc1-c1ccc(O)cc1`, the Kinase result was “GSK3-β; also recorded: GSK3-α; also recorded: CDK2-cyclinE”.

As for `CCn1c(CNc2ccc(Cl)cc2)nnc1SCC(=O)Nc1ccccc1`, the Kinase result is “c-TAK1”.

Take `COc1ccc(-c2nnc(SCC(=O)NCC3CCCCC3)n2-c2ccccc2)cc1`: the Kinase result is “AKT3”.

Turning to `Cc1cccc(C)c1NC(=O)C(C)Sc1nnc(CNc2ccc(Cl)cc2)n1-c1ccccc1` (stereo not drawn), the Kinase result was “CDK2-cyclinE”.

Consider `CCOC(=O)c1ccc(NC(=O)CSc2nnc(COc3ccc(OC)cc3)n2CC)cc1`, for which the Kinase entry is listed as “FYN”.

As to `CCn1c(CNc2cccc(Cl)c2)nnc1SCC#N`, the Kinase entry is given as “CDK2-cyclinA”.

With `O=C(CSc1nnc(-c2ccc(O)cc2)n1CC1CCCO1)c1ccc2c(c1)OCCO2` (stereo not drawn), the Kinase result was “GSK3-β and SGK1”.

Take `O=C(CSc1nnc(-c2ccccc2O)n1Cc1ccccc1)N(c1ccccc1)c1ccccc1`: the Kinase result is “CDK2-cyclinA; also recorded: AURORA-A”.

As to `COC(=O)c1ccccc1NC(=O)CSc1nnc(-c2ccc(O)cc2)n1Cc1ccco1`, the Kinase entry is “GSK3-β and MSK2 and GSK3-α”.

For `N#CCSc1nnc(C2CCCCC2)n1-c1ccccc1` [2-(5-cyclohexyl-4-phenyl-4H-1,2,4-triazol-3-ylthio)acetonitrile], the Kinase result is listed as “CHEK2”.

Turning to `Cc1ccc(-n2c(SCC#N)nnc2-c2ccncc2)cc1` [2-(5-(pyridin-4-yl)-4-p-tolyl-4H-1,2,4-triazol-3-ylthio)acetonitrile], the Kinase entry is “AURORA-A; also recorded: GSK3-β; also recorded: GSK3-α”.

As to `COc1ccc(NCc2nnc(SCC(N)=O)n2C)cc1`, the Kinase result is “PDGFRR-α and FYN”.

As for `COc1ccccc1-c1nnc(N)[nH]1` [5-(2-methoxyphenyl)-4H-1,2,4-triazol-3-amine], the Kinase entry is given as “AURORA-A; also recorded: CDK2/CyclinE; also recorded: CHEK2”.

`COc1ccc(NCc2nnc(SCC(=O)Nc3cccc(C(C)=O)c3)n2-c2ccc(Cl)cc2)cc1`: the Kinase result was “PDGFRR-α and FYN and FLT-3”.

In the case of `COCCn1c(SCC(=O)Nc2ccc3c(c2)OCO3)nnc1-c1cc2ccccc2cc1O`, the Kinase entry is recorded as “AURORA-A”.

Staying with this test, now noted: test compound 10 μM; active = activity greater than three-sigma from the mean of the predominately inactive population for that enzyme.
Consider `Cc1cc(C)nc(SCc2nnc(SCc3ccccc3)n2Cc2ccco2)n1`, for which the “protein kinase against which the compound exhibits inhibitory activity (Table 3)” value is “CDK1”.

On to `CCn1c(COc2ccc(Cl)cc2)nnc1SCCN1CCCCC1`, for which the “protein kinase against which the compound exhibits inhibitory activity (Table 3)” value was “INSR and PDGFRR-α and CHEK1”.

Regarding `OCC(O)CSc1nnc(-c2ccc(OC(F)(F)F)cc2)[nH]1` (stereo not drawn), the “protein kinase against which the compound exhibits inhibitory activity (Table 3)” value is “AURORA-A; also recorded: FLT-3; also recorded: DYRK2”.

As for `COc1ccccc1-n1c(SCC(=O)Nc2ccc(Cl)cc2)nnc1-c1ccccc1O`, the “protein kinase against which the compound exhibits inhibitory activity (Table 3)” value was “KIT and AURORA-A”.

Turning to `Clc1ccc(-c2nnc(SCc3ccncc3)[nH]2)cc1Cl` [4-((5-(3,4-dichlorophenyl)-4H-1,2,4-triazol-3-ylthio)methyl)pyridine], the “protein kinase against which the compound exhibits inhibitory activity (Table 3)” value is “FLT-3; also recorded: GSK3-β”.

As to `c1ccc(-c2nnc(SCC3CCCCC3)[nH]2)cc1` [3-(cyclohexylmethylthio)-5-phenyl-4H-1,2,4-triazole], the “protein kinase against which the compound exhibits inhibitory activity (Table 3)” value was “AURORA-A; also recorded: c-TAK1; also recorded: CHEK2”.

`COc1ccc(-n2c(CNc3ccc(C)cc3)nnc2SCc2ccccc2)cc1`: the “protein kinase against which the compound exhibits inhibitory activity (Table 3)” value is “FLT-3; also recorded: PDGFRR-α”.

As to `O=C1c2ccccc2C(=O)N1CCSc1nnc(-c2cccs2)[nH]1` [2-(2-(5-(thiophen-2-yl)-4H-1,2,4-triazol-3-ylthio)ethyl)isoindoline-1,3-dione], the “protein kinase against which the compound exhibits inhibitory activity (Table 3)” value was “AURORA-A; also recorded: GSK3-α; also recorded: DYRK2”.

As to `COc1ccc(NCc2nnc(SCCN3CCCCC3)n2-c2ccc(OC)cc2)cc1`, the “protein kinase against which the compound exhibits inhibitory activity (Table 3)” value is “FYN”.

`c1cncc(-c2nnc(SCCN3CCCCC3)[nH]2)c1`: the “protein kinase against which the compound exhibits inhibitory activity (Table 3)” value is “GSK3-α”.

As to `O=C(CSc1nnc(-c2ccc(O)cc2)n1-c1ccccc1)NN(Br)C(=O)c1ccccc1`, the “protein kinase against which the compound exhibits inhibitory activity (Table 3)” value was “AURORA-A”.

Regarding `Cc1ccc(-c2nnc(CSc3nnc(-c4ccc(S(=O)(=O)N5CCOCC5)cc4)n3C)o2)cc1`, the “protein kinase against which the compound exhibits inhibitory activity (Table 3)” value is on record as “GSK3-β; also recorded: GSK3-α”.

As for `O=[N+]([O-])c1ccc(-c2nnc(SCCN3CCOCC3)n2-c2ccccc2)cc1` [4-(2-(5-(4-nitrophenyl)-4-phenyl-4H-1,2,4-triazol-3-ylthio)ethyl)morpholine], the “protein kinase against which the compound exhibits inhibitory activity (Table 3)” value is recorded as “PDGFRR-α”.

In the case of `CCOC(=O)c1ccc(CSc2nnc(Cc3ccc(OC)cc3)[nH]2)o1`, the “protein kinase against which the compound exhibits inhibitory activity (Table 3)” value is on record as “FLT-3”.

Take `CCCCSc1nnc(-c2ccc(F)cc2)[nH]1` [3-(butylthio)-5-(4-fluorophenyl)-4H-1,2,4-triazole]: the “protein kinase against which the compound exhibits inhibitory activity (Table 3)” value is given as “AURORA-A; also recorded: FLT-3; also recorded: DYRK2”.

Consider `COc1ccccc1-n1c(SCC(=O)Nc2cccc(NC(=O)c3ccco3)c2)nnc1-c1ccccc1O`, for which the “protein kinase against which the compound exhibits inhibitory activity (Table 3)” value is on record as “AURORA-A”.

`CCCCSc1nnc(-c2ccc(OC)cc2)[nH]1` [3-(butylthio)-5-(4-methoxyphenyl)-4H-1,2,4-triazole]: the “protein kinase against which the compound exhibits inhibitory activity (Table 3)” value is “AURORA-A; also recorded: FLT-3; also recorded: GSK3-α”.

In the case of `CC(C)Cc1nnc(SCc2ccccc2)n1Cc1ccc(Cl)c(Cl)c1` [3-(benzylthio)-4-(3,4-dichlorobenzyl)-5-isobutyl-4H-1,2,4-triazole], the “protein kinase against which the compound exhibits inhibitory activity (Table 3)” value is “AURORA-A”.

Regarding `CC(C)(C)c1ccc(CSc2nnc(COc3ccc(Cl)cc3)n2-c2ccccc2)cc1`, the “protein kinase against which the compound exhibits inhibitory activity (Table 3)” value is reported as “SYK”.

Regarding `CC(C)=CCSc1nnc(C)n1Cc1ccco1` [4-(furan-2-ylmethyl)-3-methyl-5-(3-methylbut-2-enylthio)-4H-1,2,4-triazole], the “protein kinase against which the compound exhibits inhibitory activity (Table 3)” value is listed as “GSK3-β; also recorded: GSK3-α”.

With `CC(C)(C)c1ccc(CSc2nnc(-c3ccncc3)n2Cc2ccco2)cc1`, the “protein kinase against which the compound exhibits inhibitory activity (Table 3)” value was “MAPKAPK-2”.

For the compound `COc1ccccc1-n1c(SCC(O)c2ccccc2)nnc1-c1cccc(Cl)c1` (stereo not drawn), the “protein kinase against which the compound exhibits inhibitory activity (Table 3)” value is on record as “ROCK2”.

As for `O=C(O)c1ccc(CSc2nnc(-c3ccncc3)n2Cc2ccco2)cc1`, the “protein kinase against which the compound exhibits inhibitory activity (Table 3)” value is recorded as “GSK3-α; also recorded: GSK3-β”.

Consider `O=[N+]([O-])c1ccc(CSc2nnc[nH]2)cc1` [3-(4-nitrobenzylthio)-4H-1,2,4-triazole], for which the “protein kinase against which the compound exhibits inhibitory activity (Table 3)” value is “MSK2 and SRC”.
